Reference: patent US20210186923A1, “THERAPEUTIC FORMULATIONS AND USES THEREOF” (PIEDMONT ANIMAL HEALTH INC., priority 2017, published 2021)

Key:
[1] = system: dogs with naturally occurring coxofemoral joint disease; details: dog, in vivo, po, 3 mg/kg
Description: (§1) Efficacy was determined by rear limb using a quantified kinetic gait analysis.

[2] = system: dogs with naturally occurring coxofemoral joint disease; assay: PAH-100 oral tablet efficacy (PAH16-013), kinetic gait analysis; details: for abnormal clinical observations or adverse events: nine hound dogs, each received all treatments, PAH-100 single oral 3 mg/kg, carprofen 4.4 mg/kg PO q24 hr, 7 doses
Description: as §1

Structure (SMILES)	tolerability [1]	limb use by kinetic gait analysis, compared to no treatment and daily carprofen ([2]; dogs with coxofemoral joint osteoarthritis, single oral 3 mg/kg, over 7 days, majority of kinetic outcomes)	abnormal clinical observations or adverse events [2]
O=C(O)C1=Cc2cc(OC(F)(F)F)ccc2OC1C(F)(F)F (racemic) [PAH-100, (±)-6-(trifluoromethoxy)-2-(trifluoromethyl)-2H-chromene-3-carboxylic acid]	well tolerated	improved limb use	No abnormal clinical observations or adverse events
CC(C(=O)O)c1ccc2c(c1)[nH]c1ccc(Cl)cc12 (stereo not shown) [carprofen, reference compound]	–	–	No abnormal clinical observations or adverse events
